Assay results from ChEMBL document CHEMBL1201862, “PubChem BioAssay data set” (2004).
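Protocol summary: plate cells (96-well), add compound at 5 concentrations, incubate 48 h, interpolate endpoints linearly. GI50 is the concentration that inhibits growth by half.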 Active and inactive are the calls of the source. Rule as the data show it: active = GI50 up to about 1.1 µM and inactive = higher.

Key:
Experiment in all cases: NCI anticancer screen, dose series, 48 h
[1] = test system: 786-0
[2] = test system: A549
[3] = test system: ACHN
[4] = test system: BT-549
[5] = test system: CAKI-1
[6] = test system: CCRF-CEM
[7] = test system: COLO 205
[8] = test system: DU-145
[9] = test system: EKVX
[10] = test system: HCC 2998
[11] = test system: HCT-116
[12] = test system: HCT-15
[13] = test system: HOP-62
[14] = test system: HT-29
[15] = test system: Hs-578T
[16] = test system: IGROV-1
[17] = test system: K562
[18] = test system: KM12
[19] = test system: LOX IMVI
[20] = test system: M14
[21] = test system: MCF7
[22] = test system: MDA-MB-231
[23] = test system: MDA-MB-435
[24] = test system: MDA-N
[25] = test system: MOLT-4
[26] = test system: Malme-3M
[27] = test system: NCI-H23
[28] = test system: NCI-H460
[29] = test system: NCI-H522
[30] = test system: NCI/ADR-RES
[31] = test system: OVCAR-3
[32] = test system: OVCAR-4
[33] = test system: OVCAR-5
[34] = test system: OVCAR-8
[35] = test system: PC-3
[36] = test system: RPMI-8226
[37] = test system: RXF 393
[38] = test system: SF-268
[39] = test system: SF-295
[40] = test system: SF-539
[41] = test system: SK-MEL-28
[42] = test system: SK-MEL-2
[43] = test system: SK-MEL-5
[44] = test system: SK-OV-3
[45] = test system: SN12C
[46] = test system: SNB-19
[47] = test system: SNB-75
[48] = test system: SR
[49] = test system: SW-620
[50] = test system: T47D
[51] = test system: TK-10
[52] = test system: U-251
[53] = test system: UACC-257
[54] = test system: UACC-62
[55] = test system: UO-31
[56] = test system: A498
[57] = test system: HL-60
[58] = test system: HOP-92
[59] = test system: NCI-H226

O[C@@H]1C[C@H](Cl)c2c(Cl)sc(Cl)c21
GI50 [1]: > 100 µM (inactive)
GI50 [2]: > 100 µM (inactive)
GI50 [3]: > 100 µM (inactive)
GI50 [4]: > 100 µM (inactive)
GI50 [5]: > 100 µM (inactive)
GI50 [6]: > 100 µM (inactive)
GI50 [7]: > 100 µM (inactive)
GI50 [8]: > 100 µM (inactive)
GI50 [9]: > 100 µM (inactive)
GI50 [10]: > 100 µM (inactive)
GI50 [11]: > 100 µM (inactive)
GI50 [12]: > 100 µM
GI50 [13]: > 100 µM (inactive)
GI50 [14]: > 100 µM (inactive)
GI50 [15]: > 100 µM (inactive)
GI50 [16]: > 100 µM (inactive)
GI50 [17]: > 100 µM (inactive)
GI50 [18]: > 100 µM (inactive)
GI50 [19]: > 100 µM (inactive)
GI50 [20]: > 100 µM (inactive)
GI50 [21]: 13 µM (inactive)
GI50 [22]: > 100 µM (inactive)
GI50 [23]: > 100 µM (inactive)
GI50 [24]: > 100 µM (inactive)
GI50 [25]: > 100 µM (inactive)
GI50 [26]: > 100 µM (inactive)
GI50 [27]: > 100 µM (inactive)
GI50 [28]: > 100 µM (inactive)
GI50 [29]: > 100 µM (inactive)
GI50 [30]: > 100 µM (inactive)
GI50 [31]: > 100 µM (inactive)
GI50 [32]: > 100 µM (inactive)
GI50 [33]: > 100 µM (inactive)
GI50 [34]: > 100 µM (inactive)
GI50 [35]: > 100 µM (inactive)
GI50 [36]: > 100 µM (inactive)
GI50 [37]: > 100 µM (inactive)
GI50 [38]: > 100 µM (inactive)
GI50 [39]: > 100 µM (inactive)
GI50 [40]: > 100 µM (inactive)
GI50 [41]: > 100 µM (inactive)
GI50 [42]: > 100 µM (inactive)
GI50 [43]: > 100 µM (inactive)
GI50 [44]: > 100 µM (inactive)
GI50 [45]: > 100 µM (inactive)
GI50 [46]: > 100 µM (inactive)
GI50 [47]: > 100 µM (inactive)
GI50 [48]: > 100 µM (inactive)
GI50 [49]: > 100 µM (inactive)
GI50 [50]: 33.4 µM (inactive)
GI50 [51]: > 100 µM (inactive)
GI50 [52]: > 100 µM (inactive)
GI50 [53]: > 100 µM (inactive)
GI50 [54]: > 100 µM (inactive)
GI50 [55]: > 100 µM (inactive)

N=C(N)C(/N=N\c1ccccc1)C(N)=O (configuration not stated)
GI50 [1]: > 100 µM (inactive)
GI50 [56]: 66.5 µM (inactive)
GI50 [2]: > 100 µM (inactive)
GI50 [3]: > 100 µM (inactive)
GI50 [4]: > 100 µM (inactive)
GI50 [5]: 64.7 µM (inactive)
GI50 [7]: > 100 µM (inactive)
GI50 [8]: > 100 µM (inactive)
GI50 [9]: 95.7 µM (inactive)
GI50 [10]: > 100 µM (inactive)
GI50 [11]: > 100 µM (inactive)
GI50 [12]: 83.8 µM
GI50 [57]: > 100 µM (inactive)
GI50 [13]: > 100 µM (inactive)
GI50 [58]: > 100 µM (inactive)
GI50 [14]: > 100 µM (inactive)
GI50 [15]: > 100 µM (inactive)
GI50 [16]: > 100 µM (inactive)
GI50 [17]: 35.9 µM (inactive)
GI50 [18]: 59.4 µM (inactive)
GI50 [19]: 83 µM (inactive)
GI50 [20]: > 100 µM (inactive)
GI50 [21]: > 100 µM (inactive)
GI50 [22]: > 100 µM (inactive)
GI50 [23]: 83.4 µM (inactive)
GI50 [24]: > 100 µM (inactive)
GI50 [25]: > 100 µM (inactive)
GI50 [26]: > 100 µM (inactive)
GI50 [59]: > 100 µM (inactive)
GI50 [27]: > 100 µM (inactive)
GI50 [28]: > 100 µM (inactive)
GI50 [29]: > 100 µM (inactive)
GI50 [30]: > 100 µM (inactive)
GI50 [31]: > 100 µM (inactive)
GI50 [32]: 53.7 µM (inactive)
GI50 [33]: > 100 µM (inactive)
GI50 [34]: > 100 µM (inactive)
GI50 [35]: > 100 µM (inactive)
GI50 [36]: > 100 µM (inactive)
GI50 [37]: 87.3 µM (inactive)
GI50 [38]: > 100 µM (inactive)
GI50 [39]: 62.8 µM (inactive)
GI50 [41]: > 100 µM (inactive)
GI50 [42]: 66.1 µM (inactive)
GI50 [43]: > 100 µM (inactive)
GI50 [44]: > 100 µM (inactive)
GI50 [45]: > 100 µM (inactive)
GI50 [46]: > 100 µM (inactive)
GI50 [47]: > 100 µM (inactive)
GI50 [49]: > 100 µM (inactive)
GI50 [50]: 57.7 µM (inactive)
GI50 [51]: 96.4 µM (inactive)
GI50 [52]: > 100 µM (inactive)
GI50 [53]: > 100 µM (inactive)
GI50 [54]: 43.3 µM (inactive)
GI50 [55]: > 100 µM (inactive)

OC[C@H]1NC[C@@H](O)[C@@H](O)[C@H]1O
GI50 [56]: > 100 µM (inactive)
GI50 [4]: > 100 µM (inactive)
GI50 [5]: > 100 µM (inactive)
GI50 [6]: > 100 µM (inactive)
GI50 [7]: > 100 µM (inactive)
GI50 [8]: > 10 µM (inactive)
GI50 [10]: > 100 µM (inactive)
GI50 [11]: > 100 µM (inactive)
GI50 [12]: > 100 µM
GI50 [13]: > 100 µM (inactive)
GI50 [58]: > 100 µM (inactive)
GI50 [14]: > 100 µM (inactive)
GI50 [15]: > 100 µM (inactive)
GI50 [16]: > 100 µM (inactive)
GI50 [17]: > 100 µM (inactive)
GI50 [18]: > 100 µM (inactive)
GI50 [19]: > 100 µM (inactive)
GI50 [20]: > 100 µM (inactive)
GI50 [21]: > 100 µM (inactive)
GI50 [22]: > 100 µM (inactive)
GI50 [23]: > 100 µM (inactive)
GI50 [24]: > 100 µM (inactive)
GI50 [25]: > 100 µM (inactive)
GI50 [26]: > 100 µM (inactive)
GI50 [59]: > 100 µM (inactive)
GI50 [27]: > 100 µM (inactive)
GI50 [28]: > 100 µM (inactive)
GI50 [30]: > 100 µM (inactive)
GI50 [31]: > 100 µM (inactive)
GI50 [32]: > 100 µM (inactive)
GI50 [33]: > 100 µM (inactive)
GI50 [34]: > 100 µM (inactive)
GI50 [35]: > 100 µM (inactive)
GI50 [36]: > 100 µM (inactive)
GI50 [37]: > 100 µM (inactive)
GI50 [39]: > 100 µM (inactive)
GI50 [41]: > 10 µM (inactive)
GI50 [42]: > 100 µM (inactive)
GI50 [43]: > 100 µM (inactive)
GI50 [44]: > 100 µM (inactive)
GI50 [45]: > 100 µM (inactive)
GI50 [46]: > 100 µM (inactive)
GI50 [47]: 9.29 µM (inactive)
GI50 [48]: > 100 µM (inactive)
GI50 [49]: > 100 µM (inactive)
GI50 [50]: > 100 µM (inactive)
GI50 [51]: > 100 µM (inactive)
GI50 [52]: > 100 µM (inactive)
GI50 [53]: > 100 µM (inactive)
GI50 [54]: > 100 µM (inactive)
GI50 [55]: > 100 µM (inactive)
